How the values were obtained:
[1] = Visual interaction of active ingredient with polyelectrolyte PAA; format: physicochemical
Protocol: To determine interaction between polyelectrolytes (PE; Table 1) and active ingredients (AI; Table 2) aqueous stock solutions of about 200 g/L of the PE and of the active ingredients were prepared. The polyelectrolytes were diluted in water and stirred on magnetic stirrer for at least 30 minutes until a homogenous clear solution was obtained (ratios and amounts are presented in Table 4). The active ingredients were dissolved in water on magnetic stirrer or, if they weren't water soluble, suspended in water and milled by adding glass beads (1 mm) in a stainless steel metal beaker until they reach a volume-based average particle size below 20 μm (90% of particles below 20 μm), as determined by laser diffraction. After that the mixture was filtered with a sieve to remove glass beads and the filtrate was used for further analysis.
A polyelectrolyte solution, PAA or chitosan, was added to a 100-150 mL glass beaker, followed by water and an active ingredient solution/suspension. The mixture was stirred for at least 4 hours, and samples were observed after at least 16 hours. The visual observable interactions were divided into five categories (see Table 3). The categories were chosen by comparison to a blank sample containing the same concentration of active ingredient in water but without polyelectrolyte. […] Interactions were studied over a large range of active ingredient to polyelectrolyte ratios, including 10.000:1 (w/w), 1000:1 (w/w), 100:1 (w/w), 10:1 (w/w), 1:1 (w/w), 1:10 (w/w), 1:100 (w/w) and 1:1000) (w/w).

[2] = Visual interaction with polyanion sodium lignosulfonate; format: physicochemical; details: visible complex formation
Humectancy assay = format: physicochemical; details: dried at 54° C., then 97% relative humidity at 25° C.; weight after/before x 100
Protocol: The complexes of the interaction assay were used to conduct a humectancy assay. […] After reweighing on an analytical balance, the trays were placed in a climate chamber and stored for at least 2 days at 54° C. or until no further weight change was observed. […] The air tight box was 20 cm×12 cm×7 cm. In the box a chicken wire construct was used to create two levels with 10-20 ml of saturated solution of dipotassium sulfate in a petri dish in a lower level, and the samples in an upper level. Boxes were located into an incubator at 25° C. The boxes were incubated for at least 5 days at 25° C. before use to allow equilibration of temperature and humidity. Hereafter, the trays were reweighed.
The change in humectancy by combining a pesticide and polyelectrolyte is expressed as percent value by multiplying the sample weight after incubation (w2) with 100 divided with the sample weight before incubation (w1) using the following equation: […]
To evaluate the effect of the interaction of the active ingredient and polyelectrolyte on humectancy (synergetic/antagonistic/no effect), the determined Humectancy of the samples containing both active ingredient and polyelectrolyte “Humectancy (blend)” was divided by the theoretical value of Humectancy of the blend provided by respective proportion (% AI; % PE) of each pesticide and polyelectrolyte using the following equation: […]
According to this formula, a positive result of more than 1 is indicative of synergy.
The complexes obtained with the method of WO2010035118, with both ratios of 2:1 and 1:5 (PAA:AI) were tested for humectancy. […] For each sample, the test was carried in triplicate.
For each sample, the test was carried in triplicate.

[3] = system: Trifolium repens (Clover); experiment: Herbicide efficacy of glyphosate on clover; format: in vivo
From the text: (§1) The efficacy of glyphosate is often sub-optimal because after drying of the glyphosate active ingredient on the plant tissue the rate of uptake is reduced (dry glyphosate is taken up poorly by the plant tissue). A complex of glyphosate-polycation with improved humectancy properties will remain longer as a wet film on the plant tissue, thereby enhancing uptake of glyphosate in the plant tissue and enhancing its herbicidal activity. In this experiment the effect of a formed complex on efficacy of glyphosate was assessed. The experiment was performed with hard water (500 ppm CaCO3) and with soft water (50 ppm CaCO3).
(§2) The following method was used. Seeds of rye grass and clover were sown in 2 L plastic pots (10 seeds pot) and grown in Lentse Potgrond (Horticoop; Bleiswijk, the Netherlands) in a greenhouse at 22° C. and at light 16 h and dark 8 h, humidity 75%. The experiment was carried out with 2 pots (replications) per treatment. The pots were watered as to keep the plants growing optimal. At the four-five leaf stage, when plants reached a height of 15-20 cm, they were sprayed with the glyphosate treatments with and without PAA (formulations: see Table 12). The spray was such that the plants were wetted completely and uniform. 12 days after the glyphosate treatments, the fresh weight and dry weight of the parts of the plants that were above ground were measured (grams). For dry weight, plants were first dried in an oven at 67 degree Celsius for 48 hours and weight was measured.
(§3) With the method described above rye grass plants were sprayed with two glyphosate formulations: • A. 2700 ppm glyphosate plus 270 ppm complexed with PAA at a 10:1 ratio (glyphosate:PAA; w/w) (formulation see Table 12). • B. 2700 ppm glyphosate without PAA (formulation, see Table 12).

[4] = system: Lolium perenne (Ryegrass); experiment: Herbicide efficacy of glyphosate on rye grass; format: in vivo; details: for Extra reduction in dry weight: complex formation with PAA vs without PAA, first statement of b170; for Extra reduction in dry weight (second statement): second statement of b170
From the text: as §1, §2, §3

[5] = soft water, complex formation with PAA vs without PAA

O=C(O)CNCP(=O)(O)O [Glyphosate, N-(phosphonomethyl)glycine]
Visual observation category, Active ingredient: PAA ([1]; ratio active ingredient:PAA 1.000:1 (w/w)): N | Visual observation category, Active ingredient: PAA ([1]; ratio active ingredient:PAA 1:1 (w/w)): N | Visual observation category, Active ingredient: PAA ([1]; ratio active ingredient:PAA 1:10 (w/w)): N | Visual observation category, Active ingredient: PAA ([1]; ratio active ingredient:PAA 1:100 (w/w)): N | Visual observation category, Active ingredient: PAA ([1]; ratio active ingredient:PAA 1:1000 (w/w)): N | Visual observation category, Active ingredient: PAA ([1]; ratio active ingredient:PAA 10.000:1 (w/w)): N | Interaction with the polyanion sodium lignosulfonate [2]: did not form a visible complex | Humectancy (Humectancy assay): 231.3% | Extra reduction in dry weight ([3]; hard water, complex formation with PAA (Formulation A) vs without PAA (Formulation B)): 74% | Extra reduction in fresh weight ([3]; hard water, complex formation with PAA vs without PAA): 38% | Extra reduction in dry weight [3, 5]: 47% | Extra reduction in fresh weight [3, 5]: 44% | Extra reduction in dry weight ([4]; hard water): 56% | Extra reduction in dry weight (second statement) ([4]; hard water): 48% | Extra reduction in dry weight ([4]; soft water): 44% | Extra reduction in dry weight (second statement) ([4]; soft water): 46%

Reference: patent US20230413808A1, “Bioactive complexes” (priority 2020, published 2023)
